Data taken from patent publication US5968926A, “Antipsychotic method” (Novo Nordisk A/S, priority 1995, dated 1999).
Where a name gives a salt, the structure may show the parent alone.

Assays:
[1] = tested on: conditioned avoidance responding; test: Conditioned avoidance behavior in rats; format: in vivo, rat; conditions: 3.0 mg/kg s.c. 30 min before session, 50 trials
Source text: In a conditioned avoidance test, animals learn to respond during a conditioned stimulus in order to avoid mild shock presentation. A response during the conditioned stimulus is termed an avoidance respone, a response during shock is termed an escape response; a response failure is when the animal fails to respond during either the conditioned stimlus or the shock presentation and is indicative of motor impairment. […] Antipsychotic drugs decrease the percentage of avoidance responses without interfering with the ability of the animal to respond since the animals do emit escape responses. The percentage of response failures is considered a measure of motor impairment.
Rats were required to press a response lever in an experimental chamber in order to avoid or escape foot-shock. Each experimental session consisted of 50 trials. During each trial, the chamber was illuminated and a tone presented for a maximum of 10 sec. A response during the tone immediately terminated the tone and the houselight, ending the trial. In the absence of a response during the tone alone, tone+foot-shock (2.0 mA) was presented for a maximum of 10 sec. A response during shock presentation immediately terminated the shock, the tone and the houselight, ending the trial.
For drug screening, a dose of 3.0 mg/kg was administered s.c. 30 min before the start of the experimental session.

[2] = blood samples of treated patients, 17 patients, trial terminated; cited from earlier work

Structure (SMILES): CCOc1nsnc1[C@H]1CN2CCC[C@H]1C2 (relative stereo) [Compound 19, Exo-6-(3-ethoxy-1,2,5-thiadiazol-4-yl)-1-azabicyclo[3.2.1]octane oxalate]
- Conditioned Avoidance % Avoidance Responses [1]: 73%

Structure (SMILES): CCCCSc1nsnc1[C@H]1CN2CCC[C@H]1C2 (relative stereo) [Compound 30, Exo-6-(3-butylthio-1,2,5-thiadiazol-4-yl)-1-azabicyclo[3.2.1]octane oxalate]
- Conditioned Avoidance % Avoidance Responses [1]: 32%

Structure (SMILES): CCSc1nsnc1[C@H]1CN2CCC[C@H]1C2 (relative stereo) [Compound 32, Exo-6-(3-ethylthio-1,2,5-thiadiazol-4-yl)-1-azabicyclo[3.2.1]octane oxalate]
- Conditioned Avoidance % Avoidance Responses [1]: 46%

Structure (SMILES): CCCSc1nsnc1[C@H]1CN2CCC[C@H]1C2 (relative stereo) [Compound 58, Exo-6-(3-propylthio-1,2,5-thiadiazol-4-yl)-1-azabicyclo[3.2.1]octane oxalate]
- Conditioned Avoidance % Avoidance Responses [1]: 41%

Structure (SMILES): CSc1nsnc1[C@H]1CN2CCC[C@H]1C2 (relative stereo) [Compound 74, Exo-6-(3-methylthio-1,2,5-thiadiazol-4-yl)-1-azabicyclo[3.2.1]octane oxalate]
- Conditioned Avoidance % Avoidance Responses [1]: 22%

Structure (SMILES): N#Cc1ccc(CSc2nsnc2[C@H]2CN3CCC[C@H]2C3)cc1 (relative stereo) [Compound 82, Exo-6-(3-(4-cyanobenzylthio)-1,2,5-thiadiazol-4-yl)-1-azabicyclo[3.2.1]octane oxalate]
- Conditioned Avoidance % Avoidance Responses [1]: 24%

Structure (SMILES): CCCOc1nsnc1[C@H]1CN2CCC[C@H]1C2 (relative stereo) [Compound 119, Exo-6-(3-propoxy-1,2,5-thiadiazol-4-yl)-1-azabicyclo[3.2.1]octane oxalate]
- Conditioned Avoidance % Avoidance Responses [1]: 29%

Structure (SMILES): CCCCOc1nsnc1[C@H]1CN2CCC[C@H]1C2 (relative stereo) [Compound 120, Exo-6-(3-butoxy-1,2,5-thiadiazol-4-yl)-1-azabicyclo[3.2.1]octane oxalate]
- Conditioned Avoidance % Avoidance Responses [1]: 27%

Structure (SMILES): CCCCSc1nsnc1C1CN2CCC1CC2.O=C(O)C(O)C(O)C(=O)O (single isomer, unassigned) [Compound 56, (+) 3-(3-Butylthio-1,2,5-thiadiazol-4-yl)-1-azabicyclo (2.2.2]octane (-) D-tartrate]
- Conditioned Avoidance % Avoidance Responses [1]: 6%

Structure (SMILES): CCCCSc1nsnc1C1CN2CCCC1C2 (single isomer, unassigned) [Compound 111, (-)-Exo-6-(3-butylthio-1,2,5-thiadiazol-4-yl)-1-azabicyclo[3.2.1]octane (+) L-tartrate]
- Conditioned Avoidance % Avoidance Responses ([1]; 3 mg/kg): 8%

Structure (SMILES): CCCCSc1nsnc1C1CN2CCCC1C2 (single isomer, unassigned) [Compound 112, (+)-Exo-6-(3-butylthio-1,2,5-thiadiazol-4-yl)-1-azabicyclo[3.2.1]octane (-) D-tartrate]
- Conditioned Avoidance % Avoidance Responses ([1]; 3 mg/kg): 2%

Structure (SMILES): CCCSc1nsnc1C1CN2CCCC1C2 (single isomer, unassigned; (+)) [Compound 113, (+)-Exo-6-(3-propylthio-1,2,5-thiadiazol-4-yl)-1-azabicyclo[3.2.1]octane (+) L-tartrate]
- Conditioned Avoidance % Avoidance Responses ([1]; 3 mg/kg): 19%

Structure (SMILES): CCCSc1nsnc1C1CN2CCCC1C2 (single isomer, unassigned; (-)) [Compound 114, (-)-Exo-6-(3-propylthio-1,2,5-thiadiazol-4-yl)-1-azabicyclo[3.2.1]octane (-) D-tartrate]
- Conditioned Avoidance % Avoidance Responses ([1]; 3 mg/kg): 39%

Structure (SMILES): CCOc1nsnc1C1CN2CCC1CC2.O=C(O)/C=C/C(=O)O (centres unmarked) [Compound 9, 3-(3-Ethoxy-1,2,5-thiadiazol-4-yl)-1-azabicyclo[2.2.2]octane fumarate]
- Conditioned Avoidance % Avoidance Responses [1]: 65%

Structure (SMILES): CCCCCCOc1nsnc1C1CN2CCC1CC2.O=C(O)/C=C/C(=O)O (centres unmarked) [Compound 11, 3-(3-Hexyloxy-1,2,5-thiadiazol-4-yl)-1-azabicyclo[2.2.2]octane fumarate]
- Conditioned Avoidance % Avoidance Responses [1]: 11%

Structure (SMILES): CCCCSc1nsnc1C1CN2CCC1CC2.O=C(O)/C=C/C(=O)O (centres unmarked) [Compound 13, 3-(3-Butylthio-1,2,5-thiadiazol-4-yl)-1-azabicyclo[2.2.2]octane fumarate]
- Conditioned Avoidance % Avoidance Responses [1]: 18%

Structure (SMILES): CCCCOc1nsnc1C1CN2CCC1CC2.O=C(O)C(=O)O (centres unmarked) [Compound 46, 3-(3-Butoxy-1,2,5-thiadiazol-4-yl)-1-azabicyclo[2.2.2]octane oxalate]
- Conditioned Avoidance % Avoidance Responses [1]: 30%

Structure (SMILES): CCSc1nsnc1C1CN2CCC1CC2.O=C(O)C(=O)O (centres unmarked) [Compound 52, 3-(3-Ethylthio-1,2,5-thiadiazol-4-yl)-1-azabicyclo[2.2.2]octane oxalate]
- Conditioned Avoidance % Avoidance Responses [1]: 63%

Structure (SMILES): CCCSc1nsnc1C1CN2CCC1CC2.O=C(O)C(=O)O (centres unmarked) [Compound 53, 3-(3-Propylthio-1,2,5-thiadiazol-4-yl)-1-azabicyclo[2.2.2]octane oxalate]
- Conditioned Avoidance % Avoidance Responses [1]: 41%

Structure (SMILES): O=C(O)/C=C/C(=O)O.c1ccc(OCCSc2nsnc2C2CN3CCC2CC3)cc1 (centres unmarked) [Compound 102, 3-(3-(2-Phenoxyethylthio)-1,2,5-thiadiazol-4-yl)-1-azabicyclo[2.2.2) octane fumarate]
- Conditioned Avoidance % Avoidance Responses [1]: 3%

Structure (SMILES): N#CCSc1nsnc1C1CN2CCC1CC2.O=C(O)C(=O)O (centres unmarked) [Compound 103, 3-(3-Cyanomethylthio-1,2,5-thiadiazol-4-yl)-1-azabicyclo[2.2.2]octane oxalate]
- Conditioned Avoidance % Avoidance Responses [1]: 51%

Structure (SMILES): O=C(O)/C=C/C(=O)O.c1csc(CCCSc2nsnc2C2CN3CCC2CC3)c1 (centres unmarked) [Compound 104, 3-(3-(3-(2-Thienyl)propylthio)-1,2,5-thiadiazol-4-yl)-1-azabicyclo[2.2.2]octane fumarate]
- Conditioned Avoidance % Avoidance Responses [1]: 24%

Structure (SMILES): Cn1nnnc1SCCCCSc1nsnc1C1CN2CCC1CC2 (centres unmarked) [Compound 106, oxalate]
- Conditioned Avoidance % Avoidance Responses [1]: 55%

Structure (SMILES): Cc1nnc(SCCCCSc2nsnc2C2CN3CCC2CC3)s1 (centres unmarked) [Compound 107, oxalate]
- Conditioned Avoidance % Avoidance Responses [1]: 52%

Structure (SMILES): CSc1nsnc1C1CN2CCC1CC2.O=C(O)C(=O)O (centres unmarked) [Compound 131, 3-(3-Methylthio-1,2,5-thiadiazol-4-yl)-1-azabicyclo[2.2.2]octane oxalate]
- Conditioned Avoidance % Avoidance Responses [1]: 53%

Structure (SMILES): Cc1cc2c(s1)Nc1ccc(F)cc1N=C2N1CCN(C)CC1 [flumezapine, 7-fluoro-2-methyl-10-(4-methyl-1-piperazinyl)-4H-thieno[2,3-b][1,5]-benzodiazepine]
- enzyme levels: creatinine phosphokinase (CPK), SGOT, SGPT [2]: in substantial excess of normal values
